Experimental findings from patent US12415797B2, “Heterocyclic compound as CDK-HDAC double-channel inhibitor” (Hangzhou Innogate Pharma Co., Ltd., priority 2018, dated 2025) are described below.

Each structure is given as a SMILES string. Where only a bound is given, the exact number is not on record here.

Common to all, as to type: biochemical
In assay [1] the target is HDAC-6 (Homo sapiens (Human), UniProt Q9UBN7). Briefly: HDAC-6 fluorogenic deacetylase assay (Ac-peptide-AMC). The following applies: recombinant, full-length protein, Ac-peptide-AMC substrate; read-out: HDAC6 (IC5). The protocol: (§1) The inhibitory effect of compounds on HDAC-1 and HDAC-6 function was determined in vitro using an optimized homogenous assay performed in 384-well plate format. In this assay, the recombinant, full-length HDAC-1, HDAC-2 or HDAC-6 protein (BPS Biosciences) was incubated with Ac-peptide-AMC with concentrations in the Km plot. Reactions were performed in Tris-based assay buffer and were followed for fluorogenic release of 7-amino-4-methylcoumarin from substrate upon deacetylase and trypsin enzymatic activity. Fluorescence measurements were obtained using a multilabel plate reader (Synergy MX with excitation at 355 nm and emission at 460 nm). Data were analyzed on a plate-by-plate basis for the linear range of fluorescence over time. Fit the data in GraphPad Prism V5.0 software to obtain IC50 values using equation (Y=Bottom+(Top-Bottom)/(1+10^((Log IC50−X)*Hill Slope), Y is % inhibition and X is compound concentration).
HDAC-6, sequence (Q9UBN7 whole entry): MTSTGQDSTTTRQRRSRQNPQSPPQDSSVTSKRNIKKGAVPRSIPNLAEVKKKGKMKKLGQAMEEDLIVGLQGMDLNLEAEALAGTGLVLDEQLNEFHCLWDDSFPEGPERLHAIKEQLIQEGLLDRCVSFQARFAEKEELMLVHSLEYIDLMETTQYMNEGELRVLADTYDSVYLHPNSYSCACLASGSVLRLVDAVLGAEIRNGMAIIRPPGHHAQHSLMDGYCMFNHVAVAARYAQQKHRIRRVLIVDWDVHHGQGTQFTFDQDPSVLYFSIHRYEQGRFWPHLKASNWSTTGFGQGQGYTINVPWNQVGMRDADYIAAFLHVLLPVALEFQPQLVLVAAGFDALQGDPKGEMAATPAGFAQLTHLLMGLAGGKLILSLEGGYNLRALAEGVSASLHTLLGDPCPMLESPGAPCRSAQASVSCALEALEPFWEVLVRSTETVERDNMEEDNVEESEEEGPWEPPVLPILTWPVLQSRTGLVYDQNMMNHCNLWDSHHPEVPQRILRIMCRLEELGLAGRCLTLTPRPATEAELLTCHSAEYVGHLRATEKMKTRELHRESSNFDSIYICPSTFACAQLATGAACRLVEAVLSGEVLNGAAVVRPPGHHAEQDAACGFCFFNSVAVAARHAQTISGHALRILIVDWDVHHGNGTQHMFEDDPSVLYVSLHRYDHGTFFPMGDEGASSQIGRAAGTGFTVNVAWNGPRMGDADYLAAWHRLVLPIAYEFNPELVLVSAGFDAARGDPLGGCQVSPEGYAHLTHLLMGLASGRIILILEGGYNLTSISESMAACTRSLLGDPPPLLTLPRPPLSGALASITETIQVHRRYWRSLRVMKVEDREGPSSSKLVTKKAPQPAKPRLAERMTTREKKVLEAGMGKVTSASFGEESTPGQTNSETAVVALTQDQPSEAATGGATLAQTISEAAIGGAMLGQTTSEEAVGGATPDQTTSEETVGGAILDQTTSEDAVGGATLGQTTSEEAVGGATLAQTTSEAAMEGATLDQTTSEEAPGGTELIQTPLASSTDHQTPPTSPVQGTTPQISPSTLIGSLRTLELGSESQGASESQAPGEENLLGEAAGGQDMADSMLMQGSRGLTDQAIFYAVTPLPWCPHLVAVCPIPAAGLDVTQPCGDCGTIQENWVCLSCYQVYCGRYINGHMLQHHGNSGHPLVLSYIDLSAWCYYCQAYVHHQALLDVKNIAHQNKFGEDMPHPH

Assay [2] concerns the target HDAC-1 (Homo sapiens (Human), UniProt Q13547). The assay can be described thus: HDAC-1 fluorogenic deacetylase assay (Ac-peptide-AMC). Particulars: recombinant, full-length protein, Ac-peptide-AMC substrate; read-out: HDAC1 (IC50). The protocol:
as §1

Assay [3] addresses CDK6/cycD3 (Homo sapiens (Human), UniProt Q00534). Briefly: CDK6/cycD3 kinase Mobility Shift Assay. Particulars: CDK6/cycD3 15 nM, ATP Km 800 μM, 60 min, 28° C. The protocol:
(§2) In vitro enzymatic activity of the CDK isoforms CDK2/CycA2, CDK4/CycD3 and CDK6/cycD3 were measured using Mobility Shift Assay that monitors phosphorylation ratio of FAM labelled peptide (Peptide 18 for CDK2/CycA2, Peptide 8 for CDK4/CycD3). CDK2/CycA2 and CDK6/CycD3 were assayed under buffer conditions in the presence of 50 mM HEPES (pH 7.5), 10 mM MgCl2, 0.0015% Brij-35 and 2 mM dithiothreitol; CDK4/CycD3 with buffer condition of 20 mM HEPES (pH 7.5), 10 mM MgCl2, 0.01% Triton X-100 and 2 mM dithiothreitol. Prepare compounds to 50× of the final desired highest inhibitor concentration by 100% DMSO and serial dilution in 3-fold for total of 10 concentrations. For each isoform, dosage of enzyme and substrate are CDK2/CycA2 12 nM, ATP Km 39 μM; CDK4/CycD3 10 nM, ATP Km […]; CDK6/cycD3 15 nM, ATP Km 800 μM. After assay for 60 min, 180 min, 60 min respectively at 28° C., reactions were terminated with stop solution (50 mM EDTA, 0.015% Brij-35, 0.2% Coating Reagent #3 and 100 mM HEPES (pH 7.5)). Collect conversion on Caliper EZ Reader. IC50 values were calculated by fitting the dose-response curves with Xlfit excel add-in version 4.3.1.

Assay [4] addresses CDK2/CycA2 (Homo sapiens (Human), UniProt P24941). Briefly: CDK2/CycA2 kinase Mobility Shift Assay. The following applies: CDK2/CycA2 12 nM, ATP Km 39 μM, 60 min, 28° C. On the procedure:
as §2

For assay [5], the target named is CDK4/CycD3 (Homo sapiens (Human), UniProt P11802). The assay can be described thus: CDK4/CycD3 kinase Mobility Shift Assay. Particulars: CDK4/CycD3 10 nM, ATP Km 221 μM, 180 min, 28° C. On the procedure: as §2
CDK4/CycD3, sequence (P11802 whole entry, species assumed): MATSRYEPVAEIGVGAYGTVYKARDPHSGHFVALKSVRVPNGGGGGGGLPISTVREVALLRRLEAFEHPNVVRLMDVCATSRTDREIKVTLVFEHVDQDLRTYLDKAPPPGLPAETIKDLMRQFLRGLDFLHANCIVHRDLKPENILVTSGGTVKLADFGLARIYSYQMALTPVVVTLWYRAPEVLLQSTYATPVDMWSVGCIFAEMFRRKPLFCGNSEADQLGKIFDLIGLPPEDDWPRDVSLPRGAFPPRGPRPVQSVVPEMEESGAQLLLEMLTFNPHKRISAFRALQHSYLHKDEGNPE
CDK4/CycD3, sequence (P30281 whole entry partner, species assumed): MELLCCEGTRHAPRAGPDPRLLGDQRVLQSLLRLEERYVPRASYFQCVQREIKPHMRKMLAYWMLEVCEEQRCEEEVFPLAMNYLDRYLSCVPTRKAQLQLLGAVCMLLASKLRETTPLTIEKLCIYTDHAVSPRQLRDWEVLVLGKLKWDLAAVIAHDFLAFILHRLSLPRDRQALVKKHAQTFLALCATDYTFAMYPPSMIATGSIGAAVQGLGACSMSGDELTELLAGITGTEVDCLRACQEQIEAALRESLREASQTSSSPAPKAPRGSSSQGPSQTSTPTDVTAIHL

HDAC-1, sequence (Q13547 whole entry): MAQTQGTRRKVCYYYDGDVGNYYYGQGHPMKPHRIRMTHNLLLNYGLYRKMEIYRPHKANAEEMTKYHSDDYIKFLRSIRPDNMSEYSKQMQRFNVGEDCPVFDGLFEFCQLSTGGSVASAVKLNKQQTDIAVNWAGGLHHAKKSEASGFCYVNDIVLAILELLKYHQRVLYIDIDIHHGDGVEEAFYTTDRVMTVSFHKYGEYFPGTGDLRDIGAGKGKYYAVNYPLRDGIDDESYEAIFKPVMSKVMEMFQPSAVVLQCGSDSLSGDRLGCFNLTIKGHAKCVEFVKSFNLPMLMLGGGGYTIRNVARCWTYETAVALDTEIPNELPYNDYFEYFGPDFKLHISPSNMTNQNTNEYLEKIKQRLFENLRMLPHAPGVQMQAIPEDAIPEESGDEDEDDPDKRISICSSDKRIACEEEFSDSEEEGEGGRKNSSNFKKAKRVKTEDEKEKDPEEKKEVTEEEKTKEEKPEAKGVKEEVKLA
CDK6/cycD3, sequence (Q00534 whole entry, species assumed, canonical isoform): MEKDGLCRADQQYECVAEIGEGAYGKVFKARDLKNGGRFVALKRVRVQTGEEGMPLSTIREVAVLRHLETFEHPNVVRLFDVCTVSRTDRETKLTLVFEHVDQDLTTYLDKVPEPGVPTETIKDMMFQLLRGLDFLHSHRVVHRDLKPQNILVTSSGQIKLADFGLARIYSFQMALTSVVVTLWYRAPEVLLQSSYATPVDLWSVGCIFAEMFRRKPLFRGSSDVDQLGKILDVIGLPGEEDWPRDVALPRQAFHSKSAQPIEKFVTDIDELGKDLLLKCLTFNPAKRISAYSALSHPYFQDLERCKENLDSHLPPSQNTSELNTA
CDK6/cycD3, sequence (P30281 whole entry partner, species assumed, canonical isoform): as the sequence (P30281 whole entry partner, species assumed) above

For `Cc1nc2c(F)cc(-c3nc(Nc4ccc(N(C)Cc5ccc(/C=C/C(=O)NO)cc5)cn4)ncc3F)cc2n1C(C)C` [Compound 7, (E)-3-(4-(((6-((5-fluoro-4-(4-fluoro-1-isopropyl-2-methyl-1H-benzo[d]imidazol-6-yl)pyrimidin-2-yl)amino)pyridin-3-yl)(methyl)amino)methyl)phenyl)-N-hydroxyacrylamide], the IC50 lay in the range of 0.01 to 0.1 µM in assay [1]; 0.1 to 0.5 µM in assay [2]; 0.5 to 1 µM in assay [3]; 0.1 to 0.5 µM in assay [4]; 0.01 to 0.1 µM in assay [5].

On to `Cc1nc2c(F)cc(-c3nc(Nc4ccc(N5CCN(CCCCC(=O)NO)CC5)cn4)ncc3F)cc2n1C(C)C` [Compound 13, 5-(4-(6-((5-fluoro-4-(4-fluoro-1-isopropyl-2-methyl-1H-benzo[d]imidazol-6-yl)pyrimidin-2-yl)amino)pyridin-3-yl)piperazin-1-yl)-N-hydroxypentanamide], for which the IC50 was 0.01 to 0.1 µM in assay [1]; at least 1 µM in assay [2]; below 0.01 µM in assay [3]; 0.01 to 0.1 µM in assay [4]; below 0.01 µM in assay [5].
